Results reported in US9138439B2, “Methods and compositions for modulating P300/CBP activity” (The Wistar Institute, priority 2007, dated 2015).
Positions count from the first letter of the chain named. Non-standard residues stand in square brackets, D forms with d. No end group written: not given here. Cit = NC(=O)NCCC[C@H](N)C(=O)O

Assays:
D1625R/D1628R p300 HAT = target: T1, D1625R/D1628R p300 HAT (Homo sapiens, UniProt Q09472, D1625R/D1628R/DEL1523-1554/M1652G); test: HAT assay, steady state kinetic parameters of H4 tail peptide analog substrates, D1625R/D1628R p300 HAT mutant; assay type: biochemical; conditions: for V/K(M^−1s^−1) for D1625R/D1628R: peptide as substrate of D1625R/D1628R p300 HAT mutant; for V/K difference between wild-type p300 HAT protein and the D1625R/D1628R mutant: ratio wild-type versus mutant for the given substrate
T1 construct: linking the natural N- and C-termini (residues 1287 and 1666) of the HAT domain; made in house
T1 sequence (Q09472 with tags, fused parts or gaps DEL1523-1554/D1625R/D1628R/M1652G): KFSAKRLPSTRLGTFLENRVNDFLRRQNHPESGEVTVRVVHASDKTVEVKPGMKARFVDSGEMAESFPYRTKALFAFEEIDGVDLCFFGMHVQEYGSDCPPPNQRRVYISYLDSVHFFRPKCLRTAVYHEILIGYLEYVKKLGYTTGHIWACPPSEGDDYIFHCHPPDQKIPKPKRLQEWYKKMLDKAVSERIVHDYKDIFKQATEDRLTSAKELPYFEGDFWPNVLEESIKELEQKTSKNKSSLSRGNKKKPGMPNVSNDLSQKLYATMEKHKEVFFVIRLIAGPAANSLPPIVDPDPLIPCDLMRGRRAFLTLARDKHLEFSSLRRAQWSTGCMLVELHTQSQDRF
Protocol: (§1) HAT Assays. HAT activity was determined by either a rapid and nonradioactive HAT assay that measures the production of CoASH by its facile reaction with DTNB, or by a radioactive assay (Lau, et al. (2000) supra; Thompson, et al. (2000) supra). […] For the radioactive assay, the concentration of [^14C]acetyl-CoA was fixed at 20 μM when measuring the steady-state kinetic parameters for peptide substrates.
(§2) To test the influence of electrostatic interactions on substrate sequence selection, the steady state kinetic parameters for several synthetic H4 tail peptide analogs was determined (listed in Table 5). In H4-15, there are two other basic residues (Lys5 and Lys12) near the target Lys8. It has previously been shown that either one of the nearby Lys (or Arg replacements) is sufficient to permit efficient acetylation by full-length p300 (Thompson, et al. (2001) supra). Here, the effects of replacing Lys5 and Lys12 with Ala, the neutral residue hydrogen bonding citrulline, or Asp were compared for wild-type and mutant p300 HAT as indicated in Table 5. Analysis of the single lysine substrate, analogous to the Lys-CoA component, which contains both amino and carboxyl groups derivatized as amides (Table 5), was also conducted. Km of these substrates were generally too high to be measured (>1000 μM) under the experimental conditions, highlighting the important role of the nearby positively charged residues for substrate interaction. As shown Table 5, the 22-fold V/K difference between wild-type p300 HAT protein and the D1625R/D1628R mutant for H4-15 substrate dropped to 6-fold when using Ac-Lys-NH2 as substrate. […] Consistent with this idea, H4-12^K5A/K12A or H4-12^K5Cit/K12A which lack proximal basic residues but contain neutral hydrogen bonding residues show kinetic behavior similar to that of Ac-Lys-NH2 (Table 5).

wild-type p300 HAT = target: T2, wild-type p300 HAT (Homo sapiens, UniProt Q09472, DEL1523-1554/M1652G); test: HAT assay, steady state kinetic parameters of H4 tail peptide analog substrates, wild-type p300 HAT; assay type: biochemical; conditions: peptide as substrate of wild-type p300 HAT
T2 construct: linking the natural N- and C-termini (residues 1287 and 1666) of the HAT domain; made in house
T2 sequence (Q09472 with tags, fused parts or gaps DEL1523-1554/M1652G): T1 sequence (Q09472 with tags, fused parts or gaps DEL1523-1554/D1625R/D1628R/M1652G) with R307D, R310D
Protocol: as §1, §2

p300/CBP HAT [1] = test: coupled spectrophotometric assay that measures CoASH production in real-time; assay type: biochemical, human; conditions: inhibitor concentration not given
From the text: (§3) In accordance with the methods of the present invention, compounds were screened to identify modulators of p300/CBP HAT activity.

p300/CBP HAT [2] = test: direct radioactive assay measuring 14C-incorporation from acetyl-CoA into H4 tail peptide; assay type: biochemical, human; conditions: inhibitor concentration not given
Protocol: as §3, §1

AANAT = test: specificity test against other acetyltransferases: AANAT; assay type: biochemical
From the text: (§4) The three small molecule p300 HAT inhibitors (7, 17.2 and 17.3) identified using virtual library screening provided new leads for further development. […] From the docking model of 7 to p300 HAT (FIG. 11), important hydrogen bonding roles are indicated for the side-chains of Arg1410, Thr1411, Trp1466 (all interacting with the inhibitor carboxylate) as well as the side-chain of Tyr1467 (hydrogen bonding to the nitro group). While Arg1410 and Tyr1467 are critical for CoA binding and/or catalysis, mutation of Trp1466 is well-tolerated. To explore the specificity of the small molecule HAT inhibitors, these compounds are tested against other acetyltransferases (PCAF, AANAT, RTT109, EsaI), which assists in the prioritization of candidates for pharmacologic applications.

PCAF = PCAF (Homo sapiens, UniProt Q92831); test: specificity test against other acetyltransferases: PCAF; assay type: biochemical
Sequence of PCAF (Q92831 whole entry, species assumed): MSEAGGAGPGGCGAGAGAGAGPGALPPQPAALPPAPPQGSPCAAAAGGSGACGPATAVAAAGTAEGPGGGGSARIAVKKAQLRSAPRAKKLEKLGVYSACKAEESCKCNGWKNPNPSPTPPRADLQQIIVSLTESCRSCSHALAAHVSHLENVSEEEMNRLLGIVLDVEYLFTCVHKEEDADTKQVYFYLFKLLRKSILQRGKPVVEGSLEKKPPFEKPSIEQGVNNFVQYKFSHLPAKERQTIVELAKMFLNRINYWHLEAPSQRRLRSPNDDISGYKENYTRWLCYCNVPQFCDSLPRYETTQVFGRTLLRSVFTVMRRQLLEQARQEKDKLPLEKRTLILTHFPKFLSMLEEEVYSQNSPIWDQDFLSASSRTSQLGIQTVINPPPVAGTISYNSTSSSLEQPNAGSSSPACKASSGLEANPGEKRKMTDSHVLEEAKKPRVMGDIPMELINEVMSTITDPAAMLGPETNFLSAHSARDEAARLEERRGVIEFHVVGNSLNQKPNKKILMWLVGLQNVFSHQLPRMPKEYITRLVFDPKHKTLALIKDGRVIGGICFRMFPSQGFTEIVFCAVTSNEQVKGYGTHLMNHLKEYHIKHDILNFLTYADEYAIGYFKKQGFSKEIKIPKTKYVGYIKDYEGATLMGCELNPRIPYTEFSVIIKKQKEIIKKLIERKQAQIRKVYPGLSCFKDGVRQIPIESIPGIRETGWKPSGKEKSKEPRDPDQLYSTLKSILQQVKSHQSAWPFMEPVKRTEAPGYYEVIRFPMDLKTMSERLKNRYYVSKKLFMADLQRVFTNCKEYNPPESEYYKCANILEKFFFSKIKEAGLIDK
From the text: as §4

p300/CBP = p300/CBP (Homo sapiens, UniProt Q09472); conditions: Lau, et al. (2000); cited from earlier work
Sequence of p300/CBP (Q09472 whole entry): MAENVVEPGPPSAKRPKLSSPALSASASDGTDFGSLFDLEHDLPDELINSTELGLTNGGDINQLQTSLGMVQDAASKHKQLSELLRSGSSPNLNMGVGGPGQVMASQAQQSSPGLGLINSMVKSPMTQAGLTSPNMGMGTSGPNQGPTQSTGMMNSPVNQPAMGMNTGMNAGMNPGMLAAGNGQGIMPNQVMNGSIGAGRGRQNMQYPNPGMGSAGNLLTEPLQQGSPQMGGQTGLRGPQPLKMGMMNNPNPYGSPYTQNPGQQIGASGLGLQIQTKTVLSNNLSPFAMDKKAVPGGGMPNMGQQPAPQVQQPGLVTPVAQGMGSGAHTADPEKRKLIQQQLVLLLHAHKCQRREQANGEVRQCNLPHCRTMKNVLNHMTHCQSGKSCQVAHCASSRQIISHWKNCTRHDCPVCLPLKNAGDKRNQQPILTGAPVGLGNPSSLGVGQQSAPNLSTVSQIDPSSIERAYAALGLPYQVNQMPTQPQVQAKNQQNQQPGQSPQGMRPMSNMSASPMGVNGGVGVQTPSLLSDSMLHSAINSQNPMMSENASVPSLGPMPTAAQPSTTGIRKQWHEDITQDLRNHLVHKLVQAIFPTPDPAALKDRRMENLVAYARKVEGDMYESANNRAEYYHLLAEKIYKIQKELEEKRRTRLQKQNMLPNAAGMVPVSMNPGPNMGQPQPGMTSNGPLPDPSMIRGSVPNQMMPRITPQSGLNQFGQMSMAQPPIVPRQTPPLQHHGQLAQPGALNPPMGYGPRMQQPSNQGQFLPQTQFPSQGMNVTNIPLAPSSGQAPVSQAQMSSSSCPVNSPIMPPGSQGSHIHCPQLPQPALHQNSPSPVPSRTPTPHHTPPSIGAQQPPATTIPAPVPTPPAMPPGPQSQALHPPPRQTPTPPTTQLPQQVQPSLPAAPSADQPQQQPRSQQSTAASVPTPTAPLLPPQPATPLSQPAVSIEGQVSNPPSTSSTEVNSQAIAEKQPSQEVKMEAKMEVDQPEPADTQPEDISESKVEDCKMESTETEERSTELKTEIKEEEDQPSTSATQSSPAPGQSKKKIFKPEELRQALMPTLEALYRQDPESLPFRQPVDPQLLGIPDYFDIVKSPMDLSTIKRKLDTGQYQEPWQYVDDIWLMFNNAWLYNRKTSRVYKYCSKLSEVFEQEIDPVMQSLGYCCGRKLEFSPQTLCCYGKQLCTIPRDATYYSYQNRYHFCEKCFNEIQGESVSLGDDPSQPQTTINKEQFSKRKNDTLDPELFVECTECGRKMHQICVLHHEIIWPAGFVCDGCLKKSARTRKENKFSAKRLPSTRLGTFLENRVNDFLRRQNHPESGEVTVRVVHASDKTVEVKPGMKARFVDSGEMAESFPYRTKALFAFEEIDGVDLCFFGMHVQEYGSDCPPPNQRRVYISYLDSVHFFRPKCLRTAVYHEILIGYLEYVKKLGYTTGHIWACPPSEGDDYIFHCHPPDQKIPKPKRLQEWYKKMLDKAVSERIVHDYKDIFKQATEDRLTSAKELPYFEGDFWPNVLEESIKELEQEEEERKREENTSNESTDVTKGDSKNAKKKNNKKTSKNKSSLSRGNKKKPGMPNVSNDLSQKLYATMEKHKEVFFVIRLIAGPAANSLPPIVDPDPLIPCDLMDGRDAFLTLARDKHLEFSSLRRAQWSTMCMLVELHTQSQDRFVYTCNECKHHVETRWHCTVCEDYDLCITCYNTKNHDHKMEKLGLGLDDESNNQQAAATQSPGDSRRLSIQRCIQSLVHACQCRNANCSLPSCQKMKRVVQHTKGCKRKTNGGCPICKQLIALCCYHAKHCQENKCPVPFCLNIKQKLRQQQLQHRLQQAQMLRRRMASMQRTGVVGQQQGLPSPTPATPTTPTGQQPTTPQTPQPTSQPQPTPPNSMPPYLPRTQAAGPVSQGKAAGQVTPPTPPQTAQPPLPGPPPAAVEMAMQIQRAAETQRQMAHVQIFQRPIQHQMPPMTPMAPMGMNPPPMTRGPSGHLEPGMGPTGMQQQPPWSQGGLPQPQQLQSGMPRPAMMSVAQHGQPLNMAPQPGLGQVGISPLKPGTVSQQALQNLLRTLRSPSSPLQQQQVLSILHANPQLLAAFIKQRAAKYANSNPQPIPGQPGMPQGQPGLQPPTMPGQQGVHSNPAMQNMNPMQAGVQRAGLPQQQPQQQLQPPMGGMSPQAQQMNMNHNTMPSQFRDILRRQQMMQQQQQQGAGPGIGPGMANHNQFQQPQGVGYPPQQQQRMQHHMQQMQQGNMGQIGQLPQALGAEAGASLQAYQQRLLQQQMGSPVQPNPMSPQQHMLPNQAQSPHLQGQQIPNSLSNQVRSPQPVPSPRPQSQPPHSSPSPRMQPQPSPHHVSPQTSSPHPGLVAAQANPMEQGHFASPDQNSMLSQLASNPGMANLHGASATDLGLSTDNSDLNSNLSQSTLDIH

Molecule | melting point [°C] | % Inhibition Coupled (p300/CBP HAT [1]) [%] | % Inhibition Direct (p300/CBP HAT [2]) [%] | also measured
CC(=O)NC(CCCCN)C(N)=O (stereo not drawn) [Ac-Lys-NH2, CH3CO—NH-Lys-CONH2] | – | – | – | V/K(M^−1s^−1) for D1625R/D1628R (D1625R/D1628R p300 HAT): 326 ± 10 M⁻¹ s⁻¹; V/K difference between wild-type p300 HAT protein and the D1625R/D1628R mutant (D1625R/D1628R p300 HAT): 6 fold; V/K(M^−1s^−1) for W.T. (wild-type p300 HAT): 1843 ± 50 M⁻¹ s⁻¹
CC1=NN(c2ccc(C(=O)O)cc2)C(=O)C1 [CM-26] | – | 16.3 | – | –
CC1=NN(c2ccc(C(=O)O)cc2)C(=O)/C1=C\c1ccc(-c2ccccc2)o1 [Compound 6a] | 306 to 309 | 33.7 | 71.5 | –
CC1=NN(c2ccc(C(=O)O)cc2)C(=O)/C1=C\c1ccc(-c2ccc([N+](=O)[O-])cc2)o1 [Compound 6b] | 338 to 341 | 35.6 | 33.8 | –
CCOC(=O)c1ccccc1-c1ccc(/C=C2\C(=O)N(c3ccc(C(=O)O)cc3)N=C2C)o1 [Compound 6c] | 249 to 251 | 38.1 | 8.3 | –
CCOC(=O)c1ccc(N2N=C(C)/C(=C/c3ccc(-c4cc(C)c(C)cc4[N+](=O)[O-])o3)C2=O)cc1 [Compound 6d] | 192 to 194 | 0 | – | –
CC1=NN(c2ccc(C(=O)O)cc2)C(=O)/C1=C\c1ccc(-c2cc(C)c(C)cc2[N+](=O)[O-])o1 [Compound 7] | – | 85.9 | – | % inhibition of AANAT (AANAT): 4.8%; % inhibition of PCAF (PCAF): 0%
CC1=NN(CCCCC(=O)O)C(=O)/C1=C\c1ccc(-c2cc(C)c(C)cc2[N+](=O)[O-])o1 [Compound 9] | – | 92.6 | 55.8 | –
CC1=NN(c2ccc(C(=O)O)cc2)C(=O)/C1=C\c1ccc(-c2cc(C)ccc2[N+](=O)[O-])o1 [Compound 40174] | – | – | 79.5 | –
CC1=NN(c2ccc(C(=O)O)cc2)C(=O)/C1=C\c1ccc(-c2ccccc2F)o1 [Compound 6328730] | – | 90.5 | 67.9 | –
CC(=O)N[C@@H](CCCCNC(=O)CSCCNC(=O)CCNC(=O)[C@H](O)C(C)(C)COP(=O)(O)OP(=O)(O)OC[C@H]1O[C@@H](n2cnc3c(N)ncnc32)[C@H](O)[C@@H]1OP(=O)(O)O)C(N)=O [Lys-CoA] | – | – | – | inhibition of p300/CBP (p300/CBP): powerful and selective inhibitor
GRGDGGKGLGDGGAK [H4-15(K5D/K12D)] | – | – | – | V/K(M^−1s^−1) for D1625R/D1628R (D1625R/D1628R p300 HAT): 422 ± 20 M⁻¹ s⁻¹; V/K difference between wild-type p300 HAT protein and the D1625R/D1628R mutant (D1625R/D1628R p300 HAT): ≤ 2 fold; V/K(M^−1s^−1) for W.T. (wild-type p300 HAT): 636 ± 0 M⁻¹ s⁻¹
GRGKGGKGLGKGGAK (Ac-GRGKGGKGLGKGGAK) [Compound H4-15] | – | – | – | V/K(M^−1s^−1) for D1625R/D1628R (D1625R/D1628R p300 HAT): 1162 ± 60 M⁻¹ s⁻¹; V/K difference between wild-type p300 HAT protein and the D1625R/D1628R mutant (D1625R/D1628R p300 HAT): 22 fold; V/K(M^−1s^−1) for W.T. (wild-type p300 HAT): 25000 ± 1643 M⁻¹ s⁻¹
RGAGGKGLGAGA [H4-12(K5A/K12A)] | – | – | – | V/K(M^−1s^−1) for D1625R/D1628R (D1625R/D1628R p300 HAT): 515 ± 15 M⁻¹ s⁻¹; V/K(M^−1s^−1) for W.T. (wild-type p300 HAT): 3824 ± 180 M⁻¹ s⁻¹
RGXGGKGLGAGA (RG[Cit]GGKGLGAGA) [H4-12(K5X/K12A)] | – | – | – | V/K(M^−1s^−1) for D1625R/D1628R (D1625R/D1628R p300 HAT): 738 ± 20 M⁻¹ s⁻¹; V/K(M^−1s^−1) for W.T. (wild-type p300 HAT): 5247 ± 60 M⁻¹ s⁻¹

Continued, in another order:

melting point [°C] | Molecule | % Inhibition Coupled (p300/CBP HAT [1]) [%] | % Inhibition Direct (p300/CBP HAT [2]) [%] | also measured
260 to 262 | CC1=NN(c2cccc(C(=O)O)c2)C(=O)/C1=C\c1ccc(-c2cc(C)c(C)cc2[N+](=O)[O-])o1 [Compound 6e] | 63.4 | 96.4 | –
210 to 213 | CC1=NN(c2ccc(S(=O)(=O)O)cc2)C(=O)/C1=C\c1ccc(-c2cc(C)c(C)cc2[N+](=O)[O-])o1 [Compound 6f] | 57.4 | 97.2 | –
273 to 275 | CC1=NN(c2ccc(C(N)=O)cc2)C(=O)/C1=C\c1ccc(-c2cc(C)c(C)cc2[N+](=O)[O-])o1 [Compound 6h] | 40.6 | 94.7 | –
220 to 223 | CC1=NN(c2ccc(Cl)cc2)C(=O)/C1=C\c1ccc(-c2cc(C)c(C)cc2[N+](=O)[O-])o1 [Compound 6i] | 13.9 | – | –
